In BindingDB's records for patent US20250215017 (Medinno Pharmaceutical Technology (Zhuhai) Co., 2025):

Target: T1, TGF-beta receptor type-1 (Homo sapiens, UniProt P36897)
T1 sequence (P36897 whole entry): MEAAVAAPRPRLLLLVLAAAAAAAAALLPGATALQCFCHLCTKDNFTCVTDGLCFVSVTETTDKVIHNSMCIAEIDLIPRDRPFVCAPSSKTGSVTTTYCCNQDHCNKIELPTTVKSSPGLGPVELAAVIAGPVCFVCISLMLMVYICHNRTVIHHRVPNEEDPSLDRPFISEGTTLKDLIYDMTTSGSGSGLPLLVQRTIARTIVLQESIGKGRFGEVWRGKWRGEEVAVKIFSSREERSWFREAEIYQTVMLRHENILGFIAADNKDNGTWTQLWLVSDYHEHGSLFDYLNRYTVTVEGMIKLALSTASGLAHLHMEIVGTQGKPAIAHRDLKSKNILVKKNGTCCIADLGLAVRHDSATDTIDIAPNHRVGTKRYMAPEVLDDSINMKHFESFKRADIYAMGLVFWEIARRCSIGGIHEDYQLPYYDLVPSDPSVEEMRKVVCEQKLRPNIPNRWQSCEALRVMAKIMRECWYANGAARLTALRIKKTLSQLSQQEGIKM
Test: ADP-Glo Kinase Assay
Description: The principle of the activity assay was that TGFβR1 phosphorylates the substrate TGFβR1tide, consuming ATP in the process. […] The specific experimental steps were as follows. Compounds were diluted 4-fold in DMSO in a dilution plate, with the final starting concentration of the compounds being 10 μM, across 10 concentration gradient points. The compounds were then further diluted 50-fold into the kinase reaction buffer and incubated on a shaker for 20 minutes. Kinase was formulated with an enzyme reaction buffer. 2 μl kinase was added to each well of the reaction plate. 1 μl of the compound diluted in buffer was added to each well, and then the plate was sealed with a sealing membrane and centrifuged at 1000 g for 30 seconds, leaving it at room temperature for 10 minutes. Solutions of TGFβR1tide and ATP were prepared with the kinase reaction buffer, and 2 μL of the TGFβR1tide/ATP solution was added to the reaction plate. The plate was sealed with a sealing film and centrifuged at 1000 g for 30 seconds. It was allowed to react at room temperature for 60 minutes. Subsequently, 4 μL of ADP-Glo was transferred to a 384-well reaction plate and centrifuged at 1000 rpm/min for 1 minute, followed by incubation at 25° C. for 40 minutes. […] The RLU (Relative Luminescence Unit) signal was read using a BMG microplate reader, which was used to characterize the degree of kinase activity.

Work on `Cc1cccc(-c2n[nH]cc2-c2ccnc(-c3nc4c([nH]3)CN(C(=O)N3CCN(C)CC3)C4)c2)n1` [US20250215017, Compound 7] yielded an IC50 of 1.1 nM.
